Experimental data reported in patent US20260199249A1, “SOLID ELACESTRANT DIHYDROCHLORIDE COMPOSITIONS, METHODS OF MAKING THE SAME, AND METHODS OF TREATMENT USING THE SAME” (BERLIN-CHEMIE AG, priority 2023, published 2026).
Entries after “also recorded” stand apart in the source; their conditions may differ. Where a name gives a salt, the structure may show the parent alone.

Columns and labels:
[1] = Physicochemical properties (Log P, pKa, solubility vs. pH) for PBPK model
Text: (§1) The physicochemical and biopharmaceutical properties for elacestrant dihydrochloride and its free base, elacestrant, were defined using a combination of in silico estimates from the ADMET Predictor® module that were based on the chemical structure, along with in vitro and in vivo data obtained from the literature and internal data. Table 5 summarizes the parameter values used for the elacestrant dihydrochloride […] pharmacokinetics (PBPK) model.
The solubility vs. pH profile is solved using conventional methods known to those in the art and using the measure pKa values for elacestrant (Table 5). The pHmax for elacestrant is 4.3. These values were used to model in vitro drug product dissolution. The in vivo solubility values of elacestrant dihydrochloride are calculated as a function of the volume administered and the food volume, where relevant.

[2] = Exposure-response (ER) analysis for PFS; format: in vivo, human; settings: non-parametric and parametric survival analysis
[3] = test system: ER-positive (ER+) HER2-negative (HER2−) breast cancer cells; settings: at concentrations inducing degradation of ERα protein; cited from earlier work
[4] = test system: ER+HER2-breast cancer models; settings: including models resistant to fulvestrant and CDK4/6 inhibitors and those harboring ESR1 mutations; cited from earlier work
[5] = Compressibility study (strain rate sensitivity); format: physicochemical
Method: To investigate the behavior of elacestrant dihydrochloride under mechanical stress, a compressibility study was performed. […] Thus, deformation was expected to be affected by speed. Crushing strength was rather low at slow speed and decreased as speed increased due to elastic recovery. […] The insights and recommendations from this work led to careful selection of excipients to keep tablet strength high for tablets with drug loads above 25%.

[6] = Dissolution in media of pH 1.2, 2.0 (QC), 4.5 and 6.8 with f2 analysis; format: physicochemical; settings: pH 6.8 (phosphate buffer); dihydrochloride
Method: Dissolution profiles for Formulation 2 at the target hardness (13.3 kP and 16.4 kP for 100 mg and 400 mg tablets, respectively), were generated using testing conditions that represented the physiological range of pH 1.2 (0.1 N HCl) to pH 6.8 (phosphate buffer), as well as in the QC medium (0.01 N HCl) and at pH 4.5 (acetate buffer). The dissolution profiles under these various conditions are shown in FIGS. 11A-D (100 mg tablets) and FIGS. 12A-D (400 mg tablets).
FIGS. 13A-D compare the dissolution profiles of the elacestrant dihydrochloride 100 mg drug product used in the Pivotal BE study under 4 different dissolution conditions. […] At the highest tested pH (pH 6.8) the solubility of the drug is so low that this test condition is not a reliable method for testing the dissolution of elacestrant dihydrochloride 100 mg tablets. The curves were compared using f2 analysis. […] Although the data at pH 6.8 also indicate the two curves are similar, the percent released was so low that this comparison was not of any value.

[7] = Human blood-to-plasma ratio; format: in vitro ADME; settings: blood and plasma, RAD1901-111, read-out: Human blood-to-plasma ratio, initial value
Text: as §1

[8] = Human effective jejunal permeability; settings: Caco-2, scaled from in vitro Caco2 data, read-out: Human effective jejunal permeability, initial value
Text: as §1

SMILES	pHmax [1]	solubility ([1]; free base, pH = 10, read-out: Intrinsic solubility) [mg/mL]	exposure-response for PFS (progression-free survival) [2]	17β-estradiol mediated cell proliferation [3]	antitumor activity [4]	strain rate sensitivity [5] [%]	solubility [6]	logP [1]	solubility ([1]; 0.01 N HCl)	pKa ([1]; (A))	pKa ([1]; (B), first)	pKa ([1]; (B), second)	solubility ([1]; salt, pH = 4.3, read-out: Intrinsic solubility) [mg/mL]	blood plasma ratio [7]	Papp [8] [×10⁻⁶ cm/s]
CCNCCc1ccc(CN(CC)c2cc(OC)ccc2[C@@H]2CCc3cc(O)ccc3C2)cc1 [Elacestrant]	4.3	0.000115	no differences in PFS across the observed range of elacestrant exposures	inhibited 17β-estradiol mediated cell proliferation	demonstrated in vitro and in vivo antitumor activity	–	–	–	–	–	–	–	–	–	–
CCNCCc1ccc(CN(CC)c2cc(OC)ccc2[C@@H]2CCc3cc(O)ccc3C2)cc1 [Elacestrant Dihydrochloride, (6R)-6-(2-(N-(4-(2-(ethylamino)ethyl)benzyl)-N-ethylamino)-4-methoxyphenyl)-5,6,7,8-tetrahydronaphthalen-2-ol dihydrochloride]	–	–	–	–	–	15.5	significantly lower; also recorded: so low	5.56	feely soluble	12	6.39	7.74	39.4	0.701	32
